# Experimental data reported in patent US20260216180A1, “QUINOLINE DERIVATIVE COMPOUNDS OR PHARMACEUTICALLY ACCEPTABLE SALT THEREOF, PREPARATION METHOD THEREFOR AND USE THEREOF” (JIANGSU CAREPHAR PHARMACEUTICAL CO.,LTD., priority 2023, published 2026).
# Marks after values point to notes of the source that are not given here.
# Experiments:
# DSS colitis model = assay: In vivo efficacy in 3% DSS colitis model in mice; design: species or system male C57BL/6 mice; conditions: for Colon length / Colon weight / Pathological score: D0-D11, DSS colitis mice; for Colon length / Colon weight: D11; for Pathological score: colon HE staining
# Description: In this experiment, male C57BL/6 mice (from Jiangsu Jicui Pharmaceutical Biotechnology Co., Ltd.) were used to establish a colitis model by freely drinking 3% DSS water. After the adaptive feeding of mice, they were randomly divided into 4 groups according to their body weight: normal control group, DSS enteritis model group, compound 18-10 mg/kg group, and ABX464-40 mg/kg group. The day of grouping was recorded as DO. On D0-D8, mice in G2-G4 groups were given 3% DSS drinking water, which was changed every 3 days. On D9-D11, mice in G2-G4 groups were given normal drinking water. The corresponding solvents and drugs were intragastrically administered for 11 consecutive days from D0 to D11. From D0 to D11, mice in the G1 group received normal diet and water, and were given blank-vehicle for 11 consecutive days. The mice were observed daily from D0 to D11, their weights were recorded, diarrhea scores and bloody stool scores were measured daily, and the DAI values were calculated. On D11, mice were euthanized, colon tissue was obtained, colon length was measured, colon weight was weighed, and photos were taken. The colon tissues were subjected to HE staining and pathological analysis. Statistical analysis: Independent sample T test was used. #: P<0.05 compared with the normal control group; ##: P<0.01 compared with the normal control group; ###: P<0.001 compared with the normal control group. *: P<0.05 compared with the model control group; **: P<0.01 compared with the model control group; ***: P<0.001 compared with the model control group.
# CYP2C19 = target: T1, CYP2C19 (Homo sapiens, UniProt P33261); assay: CYP enzyme inhibition, human liver microsomes, CYP2C19; assay type: in vitro ADME; conditions: probe substrate S-Mephenytoin, read-out: IC50 CYP 2C19
# T1 construct: Commercially available mixed human liver microsomes were used; from tissue; host or cells: pooled human liver microsomes
# T1 sequence (P33261 whole entry): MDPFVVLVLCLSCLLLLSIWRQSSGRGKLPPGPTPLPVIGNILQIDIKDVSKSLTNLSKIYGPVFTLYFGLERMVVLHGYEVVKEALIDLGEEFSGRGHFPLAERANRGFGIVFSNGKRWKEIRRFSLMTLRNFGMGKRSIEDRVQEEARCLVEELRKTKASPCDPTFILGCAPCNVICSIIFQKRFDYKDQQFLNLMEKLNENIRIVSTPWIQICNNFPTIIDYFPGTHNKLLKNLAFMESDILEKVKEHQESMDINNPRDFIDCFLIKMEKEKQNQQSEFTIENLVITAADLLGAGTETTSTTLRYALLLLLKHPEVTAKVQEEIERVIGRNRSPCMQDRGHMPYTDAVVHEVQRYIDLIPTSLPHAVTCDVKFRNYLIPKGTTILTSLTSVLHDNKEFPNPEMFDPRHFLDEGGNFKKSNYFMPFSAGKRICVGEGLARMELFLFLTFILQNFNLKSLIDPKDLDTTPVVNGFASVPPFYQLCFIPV
# Description: (§1) Commercially available mixed human liver microsomes were used, with the liver microsome concentrations of diclofenac, dextromethorphan, and midazolam being 0.1 mg/mL; and the liver microsome concentrations of phenacetin, bupropion, amodiaquine, mephenytoin, and testosterone being 0.2 mg/mL. Probe substrate, specific inhibitor and test compound (ABX464, compound 18) were diluted to the corresponding concentration of working solution for use. A mixed solution containing liver microsomes, MgCl2, substrate, […] inhibitor, and the test compound was prepared. After the incubation, 600 μL of ice-cold ACN working solution containing IS was added to terminate the reaction, and the mixture was centrifuged and used for LC-MS/MS detection. [table] At different concentrations of the test compound or positive inhibitor, the percentage of remaining activity is determined by the ratio of the amount of characteristic metabolites of the probe substrate generated to the corresponding amount generated in the absence of the test compound or positive inhibitor. […]
# CYP2D6 = target: T2, CYP2D6 (Homo sapiens, UniProt P10635); assay: CYP enzyme inhibition, human liver microsomes, CYP2D6; assay type: in vitro ADME; conditions: probe substrate Dextromethorphan, read-out: IC50 CYP 2D6
# T2 construct: Commercially available mixed human liver microsomes were used; from tissue; host or cells: pooled human liver microsomes
# T2 sequence (P10635 whole entry): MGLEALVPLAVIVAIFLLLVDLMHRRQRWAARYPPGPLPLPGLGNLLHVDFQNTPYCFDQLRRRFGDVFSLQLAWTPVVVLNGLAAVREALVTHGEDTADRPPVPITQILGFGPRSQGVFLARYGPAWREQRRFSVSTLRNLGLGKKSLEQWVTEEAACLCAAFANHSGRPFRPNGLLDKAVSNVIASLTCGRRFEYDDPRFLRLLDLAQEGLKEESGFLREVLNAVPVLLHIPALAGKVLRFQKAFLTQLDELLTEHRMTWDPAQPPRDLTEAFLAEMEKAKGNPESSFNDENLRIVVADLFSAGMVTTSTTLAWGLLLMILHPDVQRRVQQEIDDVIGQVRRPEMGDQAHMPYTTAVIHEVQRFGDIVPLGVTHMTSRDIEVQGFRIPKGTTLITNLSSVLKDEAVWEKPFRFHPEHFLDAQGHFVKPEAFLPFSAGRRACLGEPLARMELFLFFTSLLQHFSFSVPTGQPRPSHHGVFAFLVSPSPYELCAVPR
# Description: as §1
# TNF-α = assay: Macrophage TNF-α secretion after LPS (ELISA); assay type: cell-based; conditions: Bone marrow macrophage, compared to 0 μM, mouse bone marrow macrophages, 200 ng/ml LPS, 6 hours, read-out: Inhibition rate of TNFα at 10 μM concentration
# Description: Pharmacological Activity Test: Regulatory Effect of Quinoline Derivatives on Macrophage IL-6 and TNF-α Secretion
# Mouse bone marrow cells were isolated from the femur and tibia bone marrow of […] mice of 6-8 week old raised under SPF conditions and inoculated in 6-well plates at a density of 1.5*10^6 cells/well/2 mL. 50 ng/mL M-CSF was added to each well and the cells were cultured in a CO2 incubator for 3 days. On the third day, the culture medium was replaced with fresh medium containing 100 ng/mL M-CSF and the culture was continued for 3 days. On the 6th day, the supernatant was removed and the cells were washed once with DPBS. After adding 1 mL of DPBS, the macrophages were harvested using a cell scraper, centrifuged at 400 g for 10 min, and the supernatant was discarded. The cells were resuspended in fresh culture medium containing 50 ng/mL M-CSF, inoculated in a 96-well plate at a density of 2*10^4 cells/well/200 μL, and cultured in a CO2 incubator overnight. 0, 3, 5, […] of the test compound were added to each well (wherein well 0 contains 0.1% DMSO) respectively and incubate in a CO2 incubator for 1 hour. Then 200 ng/ml LPS was added and the cell supernatant was collected after 6 hours of co-culture. ELISA kits were used to detect the secretion levels of IL-6 and TNF-α.
# CYP2C8 = target: T3, CYP2C8 (Homo sapiens, UniProt P10632); assay: CYP enzyme inhibition, human liver microsomes, CYP2C8; assay type: in vitro ADME; conditions: probe substrate Amodiaquine, read-out: IC50 CYP 2C8
# T3 construct: Commercially available mixed human liver microsomes were used; from tissue; host or cells: pooled human liver microsomes
# T3 sequence (P10632 1-490): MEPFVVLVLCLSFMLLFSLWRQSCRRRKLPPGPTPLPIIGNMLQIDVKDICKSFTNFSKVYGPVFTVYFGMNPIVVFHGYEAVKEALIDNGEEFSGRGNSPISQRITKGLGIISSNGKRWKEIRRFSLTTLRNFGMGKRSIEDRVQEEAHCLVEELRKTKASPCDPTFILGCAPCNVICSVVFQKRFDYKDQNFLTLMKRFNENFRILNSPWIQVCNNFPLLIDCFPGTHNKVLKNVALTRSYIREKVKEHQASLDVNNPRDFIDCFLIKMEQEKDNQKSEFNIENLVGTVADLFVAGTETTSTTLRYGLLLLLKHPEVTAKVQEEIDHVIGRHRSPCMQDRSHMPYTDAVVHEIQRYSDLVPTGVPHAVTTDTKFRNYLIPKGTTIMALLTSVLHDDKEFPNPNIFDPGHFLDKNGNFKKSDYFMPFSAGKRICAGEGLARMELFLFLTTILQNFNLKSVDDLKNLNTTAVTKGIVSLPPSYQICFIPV
# Description: as §1
# [1] = 10 mg/kg o.p. QD, listed as compound 18
# [2] = 10 mg/kg o.p. QD, DSS colitis mice
IC50 (CYP2C19),IC50 (CYP2D6),IC50 (CYP2C8),Structure (SMILES),"DAI score compared with DSS enteritis model control group (DSS colitis model; 40 mg/kg o.p. QD, DSS colitis mice)",inhibition at 10 µM (TNF-α),Colon length (DSS colitis model; 10 mg/kg o.p. QD),Colon weight (DSS colitis model; 10 mg/kg o.p. QD),Colon length (DSS colitis model; [1]),Colon weight (DSS colitis model; [1]),Pathological score (DSS colitis model; 10 mg/kg o.p. QD),Pathological score (DSS colitis model; [1]),Body weight of mice compared with DSS enteritis model control group (DSS colitis model; [2]),DAI score compared with DSS enteritis model control group (DSS colitis model; [2])
4.92 µM,17.2 µM,35.9 µM,"FC(F)(F)Oc1ccc(Nc2ccc3cccc(Cl)c3n2)cc1 [ABX464, reference compound]",significantly reduced,80%,,,,,,,,
5.69 µM,48 µM,40.4 µM,"Fc1cc(Cl)c2nc(Nc3ccc(C4(C(F)(F)F)CC4)cc3)ccc2c1 [Compound 18, 8-chloro-6-fluoro-N-(4-(1-(trifluoromethyl)cyclopropyl)phenyl)quinolin-2-amine]",,94%,6.6*** cm,0.3710** g,significantly increased,significantly increased,4.00,significantly reduced,significantly increased,significantly reduced
